Measured values published in PubChem BioAssay AID1845208 (Molecular Pharmacology Branch, DTP, NCI, 2023).

System: NCI-H196 SCLC complex tumor spheroid viability
Test: Anticancer human tumor NCI-H196 cell line growth inhibition;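 also: spheroids exposed to compounds for 7 days before readout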;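 as to viability, T/C: 100% = DMSO vehicle control wells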
Conditions: for IC50: curve of first compound; for viability, T/C: stronger effect = lower value
How it was run: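 Complex tumor spheroids combined malignant cells with endothelial cells and mesenchymal stem cells. DNA-damaging drugs and DNA repair inhibitors were tested alone and in combination, at half-log dilutions down from clinical Cmax (top 10 microM if Cmax unknown), 0.25% DMSO final.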

[1] = second compound 0.003 µM, first compound 0.0316 µM
[2] = second compound 0.003 µM, first compound 0.1 µM
[3] = second compound 0.003 µM, first compound 0.316 µM
[4] = second compound 0.003 µM, first compound 1 µM
[5] = second compound 0.003 µM, first compound 3.16 µM
[6] = second compound 0.003 µM, first compound 10 µM
[7] = second compound 0.00949 µM, first compound 0.0316 µM
[8] = second compound 0.00949 µM, first compound 0.1 µM
[9] = second compound 0.00949 µM, first compound 0.316 µM
[10] = second compound 0.00949 µM, first compound 1 µM
[11] = second compound 0.00949 µM, first compound 3.16 µM
[12] = second compound 0.00949 µM, first compound 10 µM
[13] = second compound 0.03 µM, first compound 0.0316 µM
[14] = second compound 0.03 µM, first compound 0.1 µM
[15] = second compound 0.03 µM, first compound 0.316 µM
[16] = second compound 0.03 µM, first compound 1 µM
[17] = second compound 0.03 µM, first compound 3.16 µM
[18] = second compound 0.03 µM, first compound 10 µM
[19] = second compound 0.0949 µM, first compound 0.0316 µM
[20] = second compound 0.0949 µM, first compound 0.1 µM
[21] = second compound 0.0949 µM, first compound 0.316 µM
[22] = second compound 0.0949 µM, first compound 1 µM
[23] = second compound 0.0949 µM, first compound 3.16 µM
[24] = second compound 0.0949 µM, first compound 10 µM
[25] = second compound 0.3 µM, first compound 0.0316 µM
[26] = second compound 0.3 µM, first compound 0.1 µM
[27] = second compound 0.3 µM, first compound 0.316 µM
[28] = second compound 0.3 µM, first compound 1 µM
[29] = second compound 0.3 µM, first compound 3.16 µM
[30] = second compound 0.3 µM, first compound 10 µM

Row | SMILES | IC50 (second compound 0.003 µM) | IC50 (second compound 0.00949 µM) | IC50 (second compound 0.03 µM) | IC50 (second compound 0.0949 µM) | IC50 (second compound 0.3 µM) | viability, T/C [1] | viability, T/C [2] | viability, T/C [3] | viability, T/C [4] | viability, T/C [5] | viability, T/C [6] | viability, T/C [7] | viability, T/C [8] | viability, T/C [9] | viability, T/C [10] | viability, T/C [11] | viability, T/C [12] | viability, T/C [13] | viability, T/C [14] | viability, T/C [15] | other results
1 | CC1COCCN1c1cc(-c2ccnn2C)c2ccnc(-c3ccn[nH]3)c2n1 (stereo not given) + CC[C@@]1(O)C(=O)OCc2c1cc1n(c2=O)Cc2cc3c(CN(C)C)c(O)ccc3nc2-1 | 4.08 µM | 2.26 µM | 4.78 µM | 4.15 µM | 0.334 µM | 83% | 75.1% | 68.1% | 57% | 50.6% | 47.3% | 75.4% | 69.9% | 67% | 51.4% | 52% | 45% | 70.8% | 64.9% | 60.9% | viability, T/C [16]: 57.6%; viability, T/C [17]: 50.2%; viability, T/C [18]: 47.6%; viability, T/C [19]: 62.8%; viability, T/C [20]: 61.5%; viability, T/C [21]: 61.7%; viability, T/C [22]: 57.1%; viability, T/C [23]: 50.7%; viability, T/C [24]: 44.3%; viability, T/C [25]: 55.9%; viability, T/C [26]: 51.7%; viability, T/C [27]: 48.4%; viability, T/C [28]: 49.1%; viability, T/C [29]: 43.4%; viability, T/C [30]: 38.5%
2 | COc1cc(C)[nH]c(=O)c1CN1CCc2c(Cl)cc(C(OC)C3COC3)c(Cl)c2C1=O (stereo not given) + CC[C@@]1(O)C(=O)OCc2c1cc1n(c2=O)Cc2cc3c(CN(C)C)c(O)ccc3nc2-1 | > 10 µM | > 10 µM | > 10 µM | > 10 µM | > 10 µM | 108% | 105% | 99.9% | 101% | 103% | 97.8% | 102% | 98.6% | 91.5% | 93.3% | 99.6% | 106% | 99.3% | 93.5% | 97.5% | viability, T/C [16]: 89.2%; viability, T/C [17]: 95.7%; viability, T/C [18]: 99.3%; viability, T/C [19]: 106%; viability, T/C [20]: 109%; viability, T/C [21]: 99.8%; viability, T/C [22]: 102%; viability, T/C [23]: 94.2%; viability, T/C [24]: 106%; viability, T/C [25]: 104%; viability, T/C [26]: 101%; viability, T/C [27]: 99.8%; viability, T/C [28]: 102%; viability, T/C [29]: 95.8%; viability, T/C [30]: 88.7%
